Ka data for eight compounds are collected here from ChEMBL document CHEMBL1687695, “Thermodynamic and Structural Effects of Macrocyclization as a Constraining Method in Protein-Ligand Interactions” (ACS Med Chem Lett, 2010).

Numbered stars: 1 amine (or outer) side, 2 acyl side, 3 side chain; on linkers, the order of the positions; unused ones are H or OH. Square brackets hold non-standard residues; d marks the D form. Peptide text beside a SMILES is read from it. * marks the point of attachment. pY = N[C@@H](Cc1ccc(OP(=O)(O)O)cc1)C(=O)O; NH(CH2)9CO = O=C(CCCCCCCCCN[*:1])[*:2]; Nonanoyl = CCCCCCCCC(=O)*; Hexanoyl = CCCCCC(=O)*; Ahp = NCCCCCCC(=O)O

The data set in a line: Association constant Ka of the compound. Type of data set: physicochemical.
`CCCCCC(=O)N[C@@H](Cc1ccc(OP(=O)(O)O)cc1)C(=O)N[C@H](C(=O)N[C@@H](CC(N)=O)C(=O)NCC(=O)NC)C(C)C` (Hexanoyl-[pY]VNG-NHMe) came in with a Ka of 4.1 ×10⁵ /M.

`CCCCCC(=O)N[C@@H](Cc1ccc(OP(=O)(O)O)cc1)C(=O)N[C@H](C(=O)N[C@@H](CC(N)=O)C(=O)N[C@H](C(=O)NC)C(C)C)C(C)C` (Hexanoyl-[pY]VNV-NHMe) yielded a Ka of 2.3 ×10⁶ /M.

`CCCCCC(=O)N[C@@H](Cc1ccc(OP(=O)(O)O)cc1)C(=O)N[C@H](C(=O)N[C@@H](CC(N)=O)C(=O)N[C@H](C(=O)N1CCC[C@H]1C(=O)NC)C(C)C)C(C)C` (Hexanoyl-[pY]VNVP-NHMe) displayed a Ka of 6.5 ×10⁶ /M.

`CCCCCCCCC(=O)N[C@@H](Cc1ccc(OP(=O)(O)O)cc1)C(=O)N[C@H](C(=O)N[C@@H](CC(N)=O)C(=O)NCC(=O)NC)C(C)C` (Nonanoyl-[pY]VNG-NHMe): the Ka turned out to be 5.7 ×10⁵ /M.

Regarding `CC(C)[C@@H]1NC(=O)[C@H](Cc2ccc(OP(=O)(O)O)cc2)NC(=O)CCCCCCCCCNC(=O)CNC(=O)[C@H](CC(N)=O)NC1=O` (cyclo(G[NH(CH2)9CO][pY]VN)), the Ka turned out to be 8.5 ×10⁵ /M.

For the compound `CC(C)[C@@H]1NC(=O)[C@H](Cc2ccc(OP(=O)(O)O)cc2)NC(=O)CCCCCCNC(=O)CNC(=O)[C@H](CC(N)=O)NC1=O` (cyclo([Ahp][pY]VNG)), the Ka is given as 4.7 ×10⁴ /M.

Consider `CC(C)[C@@H]1NC(=O)[C@H](CC(N)=O)NC(=O)[C@H](C(C)C)NC(=O)[C@H](Cc2ccc(OP(=O)(O)O)cc2)NC(=O)CCCCCCNC1=O` (cyclo([Ahp][pY]VNV)), for which the Ka is 2.3 ×10⁶ /M.

As to `CC(C)[C@@H]1NC(=O)[C@H](Cc2ccc(OP(=O)(O)O)cc2)NC(=O)CCCCCCNC(=O)[C@@H]2CCCN2C(=O)[C@H](C(C)C)NC(=O)[C@H](CC(N)=O)NC1=O` (cyclo([Ahp][pY]VNVP)), the Ka is listed as 1 ×10⁷ /M.
